Measurements from US20250018046A1, “COMPOUNDS FOR TARGETING DEGRADATION OF IRAK4 PROTEINS” (BIOGEN MA INC, priority 2021, published 2025).

target: T1, IRAK4 (Homo sapiens, UniProt Q9NWZ3); experiment: IRAK4 degradation assay using the HiBiT Method; type: cell-based; details: 293T cells expressing HiBiT-tagged IRAK4; 6-hour incubation; Nano-Glo HiBiT Lytic Assay luminescence
T1 construct: knocking-in a HiBiT fusion tag into the C-terminal of the IRAK4 gene in 293T cells; host or cells: 293T cells, knock-in of HiBiT at the endogenous IRAK4 locus
T1 sequence (Q9NWZ3 1-460): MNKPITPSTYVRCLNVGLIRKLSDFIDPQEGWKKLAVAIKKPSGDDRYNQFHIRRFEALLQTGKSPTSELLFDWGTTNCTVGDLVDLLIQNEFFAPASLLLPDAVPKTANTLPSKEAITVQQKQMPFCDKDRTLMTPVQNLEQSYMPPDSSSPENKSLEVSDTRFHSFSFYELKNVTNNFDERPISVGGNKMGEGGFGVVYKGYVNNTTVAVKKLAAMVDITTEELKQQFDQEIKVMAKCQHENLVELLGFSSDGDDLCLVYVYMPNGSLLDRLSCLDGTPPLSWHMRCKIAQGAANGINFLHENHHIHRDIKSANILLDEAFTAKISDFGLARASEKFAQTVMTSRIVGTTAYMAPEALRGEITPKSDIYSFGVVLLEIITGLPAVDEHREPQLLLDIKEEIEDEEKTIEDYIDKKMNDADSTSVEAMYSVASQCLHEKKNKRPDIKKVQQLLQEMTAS
Outline: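 HEK293T cells with HiBiT knocked into the IRAK4 C-terminus, 10,000 cells per well, treated with an 11-point half-log series […] in duplicate for 6 hours at 37° C., 5% CO2. Remaining IRAK4 quantified by Nano-Glo HiBiT lytic luminescence against DMSO controls.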

**Q.** For CC(C)Oc1cc2nc(C3CCN(CC(=O)N4CCC(c5ccc(NC6CCC(=O)NC6=O)cc5)CC4)CC3)cn2cc1NC(=O)c1cccc(C(F)(F)F)c1 (stereo not drawn) [Example 54, N-[2-[1-[2-[4-[4-[(2,6-dioxo-3-piperidyl)amino]phenyl]-1-piperidyl]-2-oxo-ethyl]-4-piperidyl]-7-isopropoxy-imidazo[1,2-a]pyridin-6-yl]-3-(trifluoromethyl)benzamide], which DC50 is on record?
**A.** 100 to 500 nM

**Q.** With CC(C)Oc1cc2nc(C3CCN(CC(=O)N4CCC(c5ccc(NC6CCC(=O)NC6=O)cc5)CC4)CC3)cn2cc1NC(=O)c1ccccn1 (stereo not drawn) [Example 55, N-[2-[1-[2-[4-[4-[(2,6-dioxo-3-piperidyl)amino]phenyl]-1-piperidyl]-2-oxo-ethyl]-4-piperidyl]-7-isopropoxy-imidazo[1,2-a]pyridin-6-yl]pyridine-2-carboxamide] as the compound, how does the DC50 read?
**A.** 10 to 100 nM

**Q.** CC(C)Oc1cc2nc(C3CCN(CC(=O)N4CCC(c5ccc(NC6CCC(=O)NC6=O)cc5)CC4)CC3)cn2cc1NC(=O)c1ccccc1 (stereo not drawn) [Example 56, N-[2-[1-[2-[4-[4-[(2,6-dioxo-3-piperidyl)amino]phenyl]-1-piperidyl]-2-oxo-ethyl]-4-piperidyl]-7-isopropoxy-imidazo[1,2-a]pyridin-6-yl]benzamide] was tested. Which DC50 did it give?
**A.** 100 to 500 nM

**Q.** Which DC50 does the source give for CC(C)Oc1cc2nc(C3CCN(CC(=O)N4CCC(c5ccc(NC6CCC(=O)NC6=O)cc5)CC4)CC3)cn2cc1NC(=O)c1cnn2cccnc12 (stereo not drawn) [Example 57, N-(2-(1-(2-(4-(4-((2,6-dioxopiperidin-3-yl)amino)phenyl)piperidin-1-yl)-2-oxoethyl)piperidin-4-yl)-7-isopropoxyimidazo[1,2-a]pyridin-6-yl)pyrazolo[1,5-a]pyrimidine-3-carboxamide] here?
**A.** < 10 nM

**Q.** How did the DC50 turn out when Cc1cc(-c2nc(C(=O)Nc3cn4cc(C5CCN(CC(=O)N6CCC(c7ccc(NC8CCC(=O)NC8=O)cc7)CC6)CC5)nc4cc3OC(C)C)co2)ccn1 (stereo not drawn) [Example 58, N-(2-(1-(2-(4-(4-((2,6-dioxopiperidin-3-yl)amino)phenyl)piperidin-1-yl)-2-oxoethyl)piperidin-4-yl)-7-isopropoxyimidazo[1,2-a]pyridin-6-yl)-2-(2-methylpyridin-4-yl)oxazole-4-carboxamide] was run?
**A.** 10 to 100 nM

**Q.** How did the DC50 turn out when CC(C)Oc1cc2nc(C3CCN(CC(=O)N4CCC(c5ccc(NC6CCC(=O)NC6=O)cc5)CC4)CC3)cn2cc1NC(=O)c1ccc(F)cc1F (stereo not drawn) [Example 59, N-(2-(1-(2-(4-(4-((2,6-dioxopiperidin-3-yl)amino)phenyl)piperidin-1-yl)-2-oxoethyl)piperidin-4-yl)-7-isopropoxyimidazo[1,2-a]pyridin-6-yl)-2,4-difluorobenzamide] was run?
**A.** 10 to 100 nM

**Q.** For CC(C)Oc1cc2nc(C3CCN(CC(=O)N4CCC(c5ccc(NC6CCC(=O)NC6=O)cc5)CC4)CC3)cn2cc1NC(=O)c1ccn(C)n1 (stereo not drawn) [Example 60, N-[2-[1-[2-[4-[4-[(2,6-dioxo-3-piperidyl)amino]phenyl]-1-piperidyl]-2-oxo-ethyl]-4-piperidyl]-7-isopropoxy-imidazo[1,2-a]pyridin-6-yl]-1-methyl-pyrazole-3-carboxamide], which DC50 is on record?
**A.** 10 to 100 nM

**Q.** CC(C)Oc1cc2nc(C3CCN(CC(=O)N4CCC(c5ccc(NC6CCC(=O)NC6=O)cc5)CC4)CC3)cn2cc1NC(=O)c1cccc(C(F)F)c1 (stereo not drawn) [Example 61, 3-(difluoromethyl)-N-(2-(1-(2-(4-(4-((2,6-dioxopiperidin-3-yl)amino)phenyl)piperidin-1-yl)-2-oxoethyl)piperidin-4-yl)-7-isopropoxyimidazo[1,2-a]pyridin-6-yl)benzamide] was tested. Which DC50 did it give?
**A.** 10 to 100 nM

**Q.** For CC(C)Oc1cc2nc(C3CCN(CCN4CCC(c5ccc(CN6CCC(=O)NC6=O)cc5)CC4)CC3)cn2cc1NC(=O)c1cccc(C(F)(F)F)n1 [Example 62, N-[2-[1-[2-[4-[4-[(2,4-dioxohexahydropyrimidin-1-yl)methyl]phenyl]-1-piperidyl]ethyl]-4-piperidyl]-7-isopropoxy-imidazo[1,2-a]pyridin-6-yl]-6-(trifluoromethyl)pyridine-2-carboxamide], which DC50 is on record?
**A.** 100 to 500 nM

**Q.** For CC(C)Oc1cc2nc(C3CCN(CCN4CCC(c5ccc(C6CCC(=O)NC6=O)cc5F)CC4)CC3)cn2cc1NC(=O)c1cccc(C(F)(F)F)n1 (stereo not drawn) [Example 64, N-[2-[1-[2-[4-[4-(2,6-dioxo-3-piperidyl)-2-fluoro-phenyl]-1-piperidyl]ethyl]-4-piperidyl]-7-isopropoxy-imidazo[1,2-a]pyridin-6-yl]-6-(trifluoromethyl)pyridine-2-carboxamide], which DC50 is on record?
**A.** 100 to 500 nM

**Q.** For CC(C)Oc1cc2nc(C3CCN(CCN4CCN(c5ccc(C6CCC(=O)NC6=O)cc5)CC4)CC3)cn2cc1NC(=O)c1cccc(C(F)(F)F)n1 (stereo not drawn) [Example 65, N-[2-[1-[2-[4-[4-(2,6-dioxo-3-piperidyl)phenyl]piperazin-1-yl]ethyl]-4-piperidyl]-7-isopropoxy-imidazo[1,2-a]pyridin-6-yl]-6-(trifluoromethyl)pyridine-2-carboxamide], which DC50 is on record?
**A.** 10 to 100 nM

**Q.** Which DC50 does the source give for CC(C)Oc1cc2nc(C3CCN(CCN4CCC(c5ccc(NC6CCC(=O)NC6=O)cc5)CC4)CC3)cn2cc1NC(=O)c1cccc(C(F)(F)F)n1 (stereo not drawn) [Example 66, N-[2-[1-[2-[4-[4-[(2,6-dioxo-3-piperidyl)amino]phenyl]-1-piperidyl]ethyl]-4-piperidyl]-7-isopropoxy-imidazo[1,2-a]pyridin-6-yl]-6-(trifluoromethyl)pyridine-2-carboxamide] here?
**A.** 100 to 500 nM

**Q.** With CC(C)Oc1cc2nc(C3CCN(CCN4CCC(c5ccc(NC6CCC(=O)NC6=O)cc5F)CC4)CC3)cn2cc1NC(=O)c1cccc(C(F)(F)F)n1 (stereo not drawn) [Example 67, N-[2-[1-[2-[4-[4-[(2,6-dioxo-3-piperidyl)amino]-2-fluoro-phenyl]-1-piperidyl]ethyl]-4-piperidyl]-7-isopropoxy-imidazo[1,2-a]pyridin-6-yl]-6-(trifluoromethyl)pyridine-2-carboxamide] as the compound, how does the DC50 read?
**A.** 100 to 500 nM

**Q.** How did the DC50 turn out when CC(C)Oc1cc2nc(C3CCN(CCc4ccc(NC5CCC(=O)NC5=O)cc4)CC3)cn2cc1NC(=O)c1cccc(C(F)(F)F)n1 (stereo not drawn) [Example 68, N-[2-[1-[2-[4-[(2,6-dioxo-3-piperidyl)amino]phenyl]ethyl]-4-piperidyl]-7-isopropoxy-imidazo[1,2-a]pyridin-6-yl]-6-(trifluoromethyl)pyridine-2-carboxamide] was run?
**A.** 10 to 100 nM

**Q.** CC(C)Oc1cc2nc(C3CCN(CCCCc4ccc(NC5CCC(=O)NC5=O)cc4)CC3)cn2cc1NC(=O)c1cccc(C(F)(F)F)n1 (stereo not drawn) [Example 69, N-[2-[1-[4-[4-[(2,6-dioxo-3-piperidyl)amino]phenyl]butyl]-4-piperidyl]-7-isopropoxy-imidazo[1,2-a]pyridin-6-yl]-6-(trifluoromethyl)pyridine-2-carboxamide] was tested. Which DC50 did it give?
**A.** 100 to 500 nM

**Q.** With CC(C)Oc1cc2nc(C3CCN(CCCCCCc4ccc(NC5CCC(=O)NC5=O)cc4)CC3)cn2cc1NC(=O)c1cccc(C(F)(F)F)n1 (stereo not drawn) [Example 70, N-[2-[1-[6-[4-[(2,6-dioxo-3-piperidyl)amino]phenyl]hexyl]-4-piperidyl]-7-isopropoxy-imidazo[1,2-a]pyridin-6-yl]-6-(trifluoromethyl)pyridine-2-carboxamide] as the compound, how does the DC50 read?
**A.** 100 to 500 nM

**Q.** Which DC50 does the source give for CC(C)Oc1cc2nc(CCCNC(=O)CN3CCC(c4ccc(NC5CCC(=O)NC5=O)cc4)CC3)cn2cc1NC(=O)c1cccc(C(F)(F)F)n1 (stereo not drawn) [Example 71, N-[2-[3-[[2-[4-[4-[(2,6-dioxo-3-piperidyl)amino]phenyl]-1-piperidyl]acetyl]amino]propyl]-7-isopropoxy-imidazo[1,2-a]pyridin-6-yl]-6-(trifluoromethyl)pyridine-2-carboxamide] here?
**A.** 100 to 500 nM

**Q.** For CC(C)Oc1cc2nc(CCCCCCN3CCC(c4ccc(NC5CCC(=O)NC5=O)cc4)CC3)cn2cc1NC(=O)c1cccc(C(F)(F)F)n1 (stereo not drawn) [Example 72, N-[2-[6-[4-[4-[(2,6-dioxo-3-piperidyl)amino]phenyl]-1-piperidyl]hexyl]-7-isopropoxy-imidazo[1,2-a]pyridin-6-yl]-6-(trifluoromethyl)pyridine-2-carboxamide], which DC50 is on record?
**A.** 100 to 500 nM

**Q.** How did the DC50 turn out when CC(C)Oc1cc2nc([C@H](Cc3ccccc3)NC(=O)CN3CCC(c4ccc(C5CCC(=O)NC5=O)cc4)CC3)cn2cc1NC(=O)c1cccc(C(F)(F)F)n1 (stereo partly drawn) [Example 73, N-[2-[(1S)-1-[[2-[4-[4-(2,6-dioxo-3-piperidyl)phenyl]-1-piperidyl]acetyl]amino]-2-phenyl-ethyl]-7-isopropoxy-imidazo[1,2-a]pyridin-6-yl]-6-(trifluoromethyl)pyridine-2-carboxamide] was run?
**A.** 100 to 500 nM

**Q.** Which DC50 does the source give for CC(C)Oc1cc2nc(CC3CN(C(=O)CN4CCC(c5ccc(C6CCC(=O)NC6=O)cc5)CC4)C3)cn2cc1NC(=O)c1cccc(C(F)(F)F)n1 (stereo not drawn) [Example 74, N-[2-[[1-[2-[4-[4-(2,6-dioxo-3-piperidyl)phenyl]-1-piperidyl]acetyl]azetidin-3-yl]methyl]-7-isopropoxy-imidazo[1,2-a]pyridin-6-yl]-6-(trifluoromethyl)pyridine-2-carboxamide] here?
**A.** 100 to 500 nM

**Q.** Which DC50 does the source give for CC(C)Oc1cc2nc(C3CCN(C(=O)CN4CCC(c5ccc(C6CCC(=O)NC6=O)cc5)CC4)C3)cn2cc1NC(=O)c1cccc(C(F)(F)F)n1 (stereo not drawn) [Example 75, N-[2-[1-[2-[4-[4-(2,6-dioxo-3-piperidyl)phenyl]-1-piperidyl]acetyl]pyrrolidin-3-yl]-7-isopropoxy-imidazo[1,2-a]pyridin-6-yl]-6-(trifluoromethyl)pyridine-2-carboxamide] here?
**A.** 10 to 100 nM
